Data: ChEMBL document CHEMBL5465560, “Selectivity Literature for EUbOPEN Chemogenomic Library” (2024)

Key:
[1] = target: Citron Rho-interacting kinase (Homo sapiens) (UniProt O14578); test: Selectivity interaction (KinomeScan (DiscoverX)) EUB0000595a CIT; conditions: at 10 µM
[2] = target: DNA (cytosine-5)-methyltransferase 1 (Homo sapiens) (UniProt P26358); conditions: at 1 µM
[3] = target: Serine/threonine-protein kinase PLK1 (Homo sapiens, UniProt P53350); test: Selectivity interaction (KinomeScan (DiscoverX)) EUB0000045b PLK1
Serine/threonine-protein kinase PLK1, sequence (P53350 whole entry): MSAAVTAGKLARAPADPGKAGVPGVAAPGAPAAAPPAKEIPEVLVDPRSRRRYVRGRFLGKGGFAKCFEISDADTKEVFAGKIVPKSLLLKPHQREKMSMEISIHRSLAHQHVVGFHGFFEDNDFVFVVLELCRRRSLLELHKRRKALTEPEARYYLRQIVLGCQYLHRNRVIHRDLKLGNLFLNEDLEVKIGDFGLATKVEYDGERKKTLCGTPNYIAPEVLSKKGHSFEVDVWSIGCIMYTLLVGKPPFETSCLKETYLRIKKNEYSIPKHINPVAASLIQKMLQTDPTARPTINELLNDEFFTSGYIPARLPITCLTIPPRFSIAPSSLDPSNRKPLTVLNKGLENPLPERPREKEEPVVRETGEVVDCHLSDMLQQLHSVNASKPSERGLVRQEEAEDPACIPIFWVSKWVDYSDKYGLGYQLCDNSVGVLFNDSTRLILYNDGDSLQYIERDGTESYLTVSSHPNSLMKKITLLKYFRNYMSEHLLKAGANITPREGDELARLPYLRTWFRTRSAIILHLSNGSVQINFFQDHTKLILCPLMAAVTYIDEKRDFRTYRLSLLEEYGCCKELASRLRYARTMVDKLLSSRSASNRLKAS

[4] = target: Mitogen-activated protein kinase kinase kinase kinase 1 (Homo sapiens) (UniProt Q92918); test: Selectivity interaction (KinomeScan (DiscoverX)) EUB0000045b MAP4K1
Mitogen-activated protein kinase kinase kinase kinase 1 (Homo sapiens), sequence (Q92918 whole entry, looked up): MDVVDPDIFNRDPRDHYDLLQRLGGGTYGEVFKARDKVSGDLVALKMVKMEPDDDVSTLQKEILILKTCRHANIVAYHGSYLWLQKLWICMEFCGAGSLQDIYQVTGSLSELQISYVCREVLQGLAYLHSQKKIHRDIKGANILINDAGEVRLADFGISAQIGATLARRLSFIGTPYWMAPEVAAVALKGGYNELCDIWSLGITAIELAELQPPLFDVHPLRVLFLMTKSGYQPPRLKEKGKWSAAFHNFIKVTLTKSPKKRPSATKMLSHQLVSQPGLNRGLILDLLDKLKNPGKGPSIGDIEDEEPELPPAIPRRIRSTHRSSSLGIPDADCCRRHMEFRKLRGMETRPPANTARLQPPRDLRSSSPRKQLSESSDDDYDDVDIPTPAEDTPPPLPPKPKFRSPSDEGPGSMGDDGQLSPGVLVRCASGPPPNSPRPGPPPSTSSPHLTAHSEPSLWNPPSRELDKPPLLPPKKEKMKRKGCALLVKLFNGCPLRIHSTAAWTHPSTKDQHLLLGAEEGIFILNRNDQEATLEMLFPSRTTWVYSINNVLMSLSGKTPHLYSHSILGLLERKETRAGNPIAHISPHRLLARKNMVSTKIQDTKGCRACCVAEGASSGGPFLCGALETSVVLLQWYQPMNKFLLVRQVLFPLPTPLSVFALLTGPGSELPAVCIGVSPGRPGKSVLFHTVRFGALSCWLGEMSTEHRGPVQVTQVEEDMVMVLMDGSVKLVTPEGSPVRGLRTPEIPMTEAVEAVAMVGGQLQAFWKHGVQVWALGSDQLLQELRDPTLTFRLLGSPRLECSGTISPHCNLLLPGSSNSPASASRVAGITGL

[5] = target: Histone-lysine N-methyltransferase ASH1L (Homo sapiens) (UniProt Q9NR48); test: Selectivity interaction (Methyltransferase screen (radiometric assays, panel of 8 PRMTs, 21 protein lysine methyltransferases, 3 DNA methyltransferases, and one RNA methyltransferase)) EUB0000271b ASH1L
[6] = target: Serine/threonine-protein kinase 33 (Homo sapiens) (UniProt Q9BYT3); test: Selectivity interaction (KinomeScan (DiscoverX)) EUB0001049a STK33; conditions: at 1 µM
Serine/threonine-protein kinase 33 (Homo sapiens), sequence (Q9BYT3 whole entry, looked up): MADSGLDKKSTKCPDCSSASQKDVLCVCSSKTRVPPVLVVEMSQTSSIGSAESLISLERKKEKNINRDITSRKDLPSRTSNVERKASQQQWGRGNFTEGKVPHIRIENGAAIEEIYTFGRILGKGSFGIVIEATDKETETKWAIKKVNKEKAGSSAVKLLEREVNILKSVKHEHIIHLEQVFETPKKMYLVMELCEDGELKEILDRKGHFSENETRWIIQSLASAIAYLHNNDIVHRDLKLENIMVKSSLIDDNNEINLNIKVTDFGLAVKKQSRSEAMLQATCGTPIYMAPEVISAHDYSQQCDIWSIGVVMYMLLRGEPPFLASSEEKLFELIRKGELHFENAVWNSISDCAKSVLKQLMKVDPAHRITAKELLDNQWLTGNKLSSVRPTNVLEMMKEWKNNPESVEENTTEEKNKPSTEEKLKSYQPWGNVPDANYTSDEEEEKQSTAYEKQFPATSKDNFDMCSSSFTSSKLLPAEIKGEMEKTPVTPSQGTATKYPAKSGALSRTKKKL

[7] = target: T1, Interleukin-1 receptor-associated kinase 4 (Homo sapiens) (UniProt Q9NWZ3); test: Selectivity interaction (KinomeScan (DiscoverX)) EUB0001550a IRAK4; conditions: at 1 µM
T1 sequence (whole entry): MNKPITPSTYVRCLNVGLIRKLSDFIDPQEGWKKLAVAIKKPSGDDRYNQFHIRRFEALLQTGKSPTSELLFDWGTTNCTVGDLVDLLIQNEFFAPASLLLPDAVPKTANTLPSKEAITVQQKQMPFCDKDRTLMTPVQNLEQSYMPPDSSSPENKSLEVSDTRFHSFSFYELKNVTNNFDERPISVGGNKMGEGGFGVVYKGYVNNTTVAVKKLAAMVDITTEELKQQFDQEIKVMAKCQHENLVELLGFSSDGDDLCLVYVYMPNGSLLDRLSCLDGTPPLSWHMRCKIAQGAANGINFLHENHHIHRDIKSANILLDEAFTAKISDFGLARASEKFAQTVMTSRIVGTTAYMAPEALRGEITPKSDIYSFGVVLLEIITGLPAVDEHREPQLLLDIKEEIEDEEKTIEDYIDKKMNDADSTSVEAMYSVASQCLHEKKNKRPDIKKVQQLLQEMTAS

[8] = target: T2, Ankyrin repeat and protein kinase domain-containing protein 1 (Homo sapiens) (UniProt Q8NFD2); test: Selectivity interaction (KinomeScan (DiscoverX)) EUB0000607a ANKK1; conditions: at 10 µM
T2 sequence (whole entry): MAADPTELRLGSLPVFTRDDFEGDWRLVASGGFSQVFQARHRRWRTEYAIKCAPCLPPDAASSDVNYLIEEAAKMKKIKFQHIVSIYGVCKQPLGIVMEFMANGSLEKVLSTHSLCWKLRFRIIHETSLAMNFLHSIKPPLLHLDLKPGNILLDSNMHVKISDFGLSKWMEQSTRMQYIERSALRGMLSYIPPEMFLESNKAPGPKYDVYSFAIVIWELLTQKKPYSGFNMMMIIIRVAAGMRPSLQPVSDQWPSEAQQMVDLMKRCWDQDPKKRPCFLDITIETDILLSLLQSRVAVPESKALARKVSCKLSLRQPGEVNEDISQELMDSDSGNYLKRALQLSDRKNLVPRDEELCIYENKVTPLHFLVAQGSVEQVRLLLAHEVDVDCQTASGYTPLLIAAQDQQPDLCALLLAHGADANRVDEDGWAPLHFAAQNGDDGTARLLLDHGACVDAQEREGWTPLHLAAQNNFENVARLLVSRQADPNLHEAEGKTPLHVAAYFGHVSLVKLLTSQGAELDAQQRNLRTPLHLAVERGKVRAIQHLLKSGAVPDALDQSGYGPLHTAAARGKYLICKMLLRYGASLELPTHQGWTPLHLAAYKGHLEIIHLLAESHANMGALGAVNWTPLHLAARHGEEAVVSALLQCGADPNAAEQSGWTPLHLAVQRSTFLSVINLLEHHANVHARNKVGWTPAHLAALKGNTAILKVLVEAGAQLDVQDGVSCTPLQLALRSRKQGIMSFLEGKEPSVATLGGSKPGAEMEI

[9] = target: T3, Myosin light chain kinase family member 4 (Homo sapiens) (UniProt Q86YV6); test: Selectivity interaction (KinomeScan (DiscoverX)) EUB0000607a MYLK4; conditions: at 10 µM
T3 sequence (whole entry): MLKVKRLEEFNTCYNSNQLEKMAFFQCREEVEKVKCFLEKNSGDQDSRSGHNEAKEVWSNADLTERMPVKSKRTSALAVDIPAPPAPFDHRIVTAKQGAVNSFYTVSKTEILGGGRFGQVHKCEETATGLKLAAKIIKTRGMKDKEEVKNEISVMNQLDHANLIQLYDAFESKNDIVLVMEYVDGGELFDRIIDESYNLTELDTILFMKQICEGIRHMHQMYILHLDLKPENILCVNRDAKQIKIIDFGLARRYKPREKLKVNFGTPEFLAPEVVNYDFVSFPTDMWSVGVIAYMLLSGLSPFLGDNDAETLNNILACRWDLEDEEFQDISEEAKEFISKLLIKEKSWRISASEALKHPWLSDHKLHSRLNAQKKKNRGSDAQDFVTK

[10] = target: T4, Serine/threonine-protein kinase DCLK1 (Homo sapiens) (UniProt O15075); test: Selectivity interaction (Ambit KINOMEscan and KiNATiv profiling in Jurkat cells) EUB0000090b DCLK1; format: cell-based; conditions: at 1 µM
T4 sequence (whole entry): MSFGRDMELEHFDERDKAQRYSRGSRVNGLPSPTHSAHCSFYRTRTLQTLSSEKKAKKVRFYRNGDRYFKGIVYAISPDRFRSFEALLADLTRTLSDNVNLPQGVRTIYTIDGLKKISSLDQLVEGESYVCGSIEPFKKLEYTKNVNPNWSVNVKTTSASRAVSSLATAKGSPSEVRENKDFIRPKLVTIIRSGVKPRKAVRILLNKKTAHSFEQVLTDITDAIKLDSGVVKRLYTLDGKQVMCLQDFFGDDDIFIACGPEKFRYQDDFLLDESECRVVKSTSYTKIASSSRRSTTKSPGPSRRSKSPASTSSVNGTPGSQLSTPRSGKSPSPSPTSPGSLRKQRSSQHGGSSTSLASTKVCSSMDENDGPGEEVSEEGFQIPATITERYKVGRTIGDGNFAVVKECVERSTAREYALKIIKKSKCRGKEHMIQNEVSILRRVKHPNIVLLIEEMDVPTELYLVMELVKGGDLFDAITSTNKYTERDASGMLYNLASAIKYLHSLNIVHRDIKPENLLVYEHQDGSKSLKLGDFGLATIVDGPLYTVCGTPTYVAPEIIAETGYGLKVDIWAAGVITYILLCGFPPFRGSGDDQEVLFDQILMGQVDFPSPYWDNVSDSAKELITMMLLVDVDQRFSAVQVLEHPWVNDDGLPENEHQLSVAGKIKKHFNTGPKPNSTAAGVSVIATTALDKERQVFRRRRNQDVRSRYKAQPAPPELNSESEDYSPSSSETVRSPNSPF

DNA (cytosine-5)-methyltransferase 1 (Homo sapiens), sequence (P26358 whole entry): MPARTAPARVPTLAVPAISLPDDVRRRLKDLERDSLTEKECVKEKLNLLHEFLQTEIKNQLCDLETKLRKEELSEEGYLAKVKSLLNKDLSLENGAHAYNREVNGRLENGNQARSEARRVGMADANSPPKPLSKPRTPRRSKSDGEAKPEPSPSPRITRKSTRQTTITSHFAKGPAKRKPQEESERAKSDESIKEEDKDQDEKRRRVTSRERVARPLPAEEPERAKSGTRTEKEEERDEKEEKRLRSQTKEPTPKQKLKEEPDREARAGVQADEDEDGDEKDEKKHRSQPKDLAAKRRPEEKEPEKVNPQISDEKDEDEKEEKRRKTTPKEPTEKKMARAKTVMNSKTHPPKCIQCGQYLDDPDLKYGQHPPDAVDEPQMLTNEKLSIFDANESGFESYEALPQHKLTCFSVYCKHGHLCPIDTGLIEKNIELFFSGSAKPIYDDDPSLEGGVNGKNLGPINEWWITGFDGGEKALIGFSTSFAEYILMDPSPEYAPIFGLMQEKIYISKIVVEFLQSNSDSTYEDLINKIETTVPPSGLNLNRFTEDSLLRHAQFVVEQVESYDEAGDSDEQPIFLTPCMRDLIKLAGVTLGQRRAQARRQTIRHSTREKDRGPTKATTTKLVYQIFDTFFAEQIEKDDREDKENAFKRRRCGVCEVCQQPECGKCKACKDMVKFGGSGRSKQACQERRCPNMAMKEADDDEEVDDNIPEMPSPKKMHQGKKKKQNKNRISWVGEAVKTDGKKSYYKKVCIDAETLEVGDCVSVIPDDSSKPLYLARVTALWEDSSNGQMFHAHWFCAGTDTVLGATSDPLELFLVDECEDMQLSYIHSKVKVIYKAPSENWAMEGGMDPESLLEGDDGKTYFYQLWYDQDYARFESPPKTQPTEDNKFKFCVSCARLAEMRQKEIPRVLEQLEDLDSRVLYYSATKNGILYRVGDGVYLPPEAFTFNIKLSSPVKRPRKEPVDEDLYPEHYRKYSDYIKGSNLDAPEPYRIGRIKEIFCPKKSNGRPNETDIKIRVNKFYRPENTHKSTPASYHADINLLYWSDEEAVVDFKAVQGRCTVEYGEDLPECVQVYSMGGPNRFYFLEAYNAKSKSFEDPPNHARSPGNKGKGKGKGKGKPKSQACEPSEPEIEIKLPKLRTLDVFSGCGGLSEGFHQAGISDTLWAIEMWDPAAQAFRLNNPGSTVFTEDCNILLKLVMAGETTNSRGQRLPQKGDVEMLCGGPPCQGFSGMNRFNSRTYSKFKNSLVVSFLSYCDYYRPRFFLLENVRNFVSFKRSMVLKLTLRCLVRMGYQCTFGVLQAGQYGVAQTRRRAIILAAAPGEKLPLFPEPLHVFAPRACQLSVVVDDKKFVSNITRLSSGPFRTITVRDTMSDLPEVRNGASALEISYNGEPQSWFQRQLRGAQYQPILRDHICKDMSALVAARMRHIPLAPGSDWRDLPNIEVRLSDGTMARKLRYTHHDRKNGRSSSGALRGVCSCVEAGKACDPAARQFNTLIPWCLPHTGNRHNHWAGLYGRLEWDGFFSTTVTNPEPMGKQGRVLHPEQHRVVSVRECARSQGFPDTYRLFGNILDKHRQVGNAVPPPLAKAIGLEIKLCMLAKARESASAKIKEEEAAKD

COCC(=O)NC/C=C/c1ccc2ncnc(Nc3ccc(Oc4ccc(C)nc4)c(C)c3)c2c1 [CP-724714]
% of control [1]: 76%

CNCCN1CCC(c2cc(CN(C)C(=O)c3cccc(Oc4ccccc4)c3)ccn2)CC1
% activity [2]: > 85%

C=CC(=O)Nc1cc(-n2c(=O)ccc3cnc4ccc(-c5ccc(NS(C)(=O)=O)cc5)cc4c32)ccc1C
% of control ([3]; at 1 µM): 100%
% of control ([3]; at 10 µM): 100%
% of control ([4]; at 1 µM): 100%
% of control ([4]; at 10 µM): 94%

Cc1cc(C)cc([C@@H]2c3cc(C)ccc3NC(=O)CN2C(=O)c2ccc(Br)s2)c1
% of activity ([5]; at 1 µM): 97.3%
% of activity ([5]; at 10 µM): 105%

COc1cc(Nc2nc(C)cc(-c3cnn4nc(OC)ccc34)n2)cc(C(F)(F)F)c1
% of control [6]: 94%

CN(C)CC#Cc1ccc2[nH]c3c(c2c1)-c1nc(N)ncc1CCC3
% of control [7]: 21%

CNC(=O)Nc1ccc(-c2nc(N3CC4CCC(C3)O4)c3cnn(C4CCC5(CC4)OCCO5)c3n2)cc1
% of control [8]: 77%
% of control [9]: 100%

CN(C)C/C=C/C(=O)Nc1ccc(C(=O)N2CCCC(Nc3ncc(Cl)c(-c4c[nH]c5ccccc45)n3)C2)cc1 (stereo not drawn)
% of control [10]: 58%
